The numbers were not newly measured in patent US6514941B1, “Method of preparing a casein hydrolysate enriched in anti-hypertensive peptides” (Campina Melkunie B.V., priority 1999, dated 2003), which cites them from elsewhere.

This data set has as its system SHRSP. The note with it: dose that is not hypotensive.

On to `C[C@H](CS)C(=O)N1CCC[C@H]1C(=O)O` [captopril], for which the onset of stroke entry is “inhibits the onset of stroke”.
